# Measured values reported in patent US4349546A, “D-Allose derivative and preparation method therefor” (Wakamoto Pharmaceutical Co., Ltd., priority 1980, dated 1982).
# Columns and labels:
# [1] = tested on: early stage encephalophyma, melanoma, lymphoma; settings: background statement; cited from earlier work
# [2] = tested on: Peripheral leukocyte count; experiment: Effects on peripheral leukocyte count (Test Example 6); format: in vivo, DDY mice
# From the text: Comparison of effects of CNUA and Me-CCNU* on peripheral leukocyte count:
# Six-week old DDY mice each weighing 22±1 g; one group comprising 5 male mice.
# CNUA and Me-CCNU were given intraperitoneally on the first day. The, blood was drawn from a tail vein at time intervals to determine the leukocyte count. The samples were used in the form of a solution in an isotonic sodium chloride solution.
# tumor = settings: background statement; cited from earlier work
compound,measurement,setting,value
"O=NN(CCCl)C(=O)NCCCl [BCNU, 1,3-bis-(2-chloroethyl)-1-nitrosourea]",effectiveness against tumors,[1],"effective against early stage encephalophyma, melanoma, lymphoma"
"O=NN(CCCl)C(=O)NC1CCCCC1 [CCNU, 1-(2-chloroethyl)-3-cyclohexyl-1-nitrosourea]",effectiveness against tumors,[1],"effective against early stage encephalophyma, melanoma, lymphoma"
"C[C@H]1CC[C@H](NC(=O)N(CCCl)N=O)CC1 [Me-CCNU, 1-(2-chloroethyl)-3-(trans-4-methylcyclohexyl)-1-nitrosourea, reference compound]",effectiveness against tumors,[1],"effective against early stage encephalophyma, melanoma, lymphoma"
same,Peripheral leukocyte count after the administration,"[2]; 20 mg/kg ip, 2 day",55.0 % based on the control
same,Peripheral leukocyte count after the administration,"[2]; 20 mg/kg ip, 4 day",53.3 % based on the control
same,Peripheral leukocyte count after the administration,"[2]; 20 mg/kg ip, 7 day",50.2 % based on the control
same,Peripheral leukocyte count after the administration,"[2]; 20 mg/kg ip, 10 day",59.5 % based on the control
same,Peripheral leukocyte count after the administration,"[2]; 20 mg/kg ip, 14 day",145 % based on the control
same,Peripheral leukocyte count after the administration,"[2]; 40 mg/kg ip, 2 day",56.0 % based on the control
same,Peripheral leukocyte count after the administration,"[2]; 40 mg/kg ip, 4 day",36.5 % based on the control
same,Peripheral leukocyte count after the administration,"[2]; 40 mg/kg ip, 7 day",34.0 % based on the control
same,Peripheral leukocyte count after the administration,"[2]; 40 mg/kg ip, 10 day",40.7 % based on the control
same,Peripheral leukocyte count after the administration,"[2]; 40 mg/kg ip, 14 day",78.1 % based on the control
O=NN(CCCl)C(=O)N[C@H]1C(O)O[C@H](CO)[C@@H](O)[C@@H]1O (stereo partly drawn) [chlorozotocin],antitumor effects,tumor,exhibit antitumor effects
CN(N=O)C(=O)N[C@H]1C(O)O[C@H](CO)[C@@H](O)[C@@H]1O (stereo partly drawn) [streptozotocin],antitumor effects,tumor,exhibit antitumor effects
